# Test results as given in publication PMC4624771, “Oriented Cell Division in the C. elegans Embryo Is Coordinated by G-Protein Signaling Dependent on the Adhesion GPCR LAT-1” (PLoS Genetics, 2015).
# Tests used:
# lat-1(ok1465) nematodes = assay: Lethality rescue assay in lat-1 mutant nematodes; type: in vivo
# Text: Fig 2 Division plane defects in lat-1 mutant embryos are rescued by elevation of intracellular cAMP via a Gs protein/adenylyl cyclase pathway. […] In wild-type embryos treated with the RNAi control vector L4440 ABal divides in an anterior-posterior direction (A) whereas in treated lat-1 mutants the division plane is almost perpendicular to MS (B). gsa-1 RNAi by feeding over two generations leads to a turning of the F2 ABal division plane in a direction similar to that in lat-1 mutants (C). F2 lat-1; gsa-1(RNAi) embryos show a similar ABal division plane to lat-1 mutants (D). (E) Cell division plane angles of ABal relative to MS after knockdown of gsa-1. […] The vector L4440 served as negative control. Data are shown as means ± SD. * p < 0.05; *** p < 0.001; n ≥ 11. (F) cAMP levels are reduced in lat-1 embryos compared to a control wild-type population. cAMP levels were measured after lysis (15 μg protein) by cAMP accumulation assay. Assays were performed in three independent experiments, data are given as means ± SD. ** p < 0.01. (G) Rescue of developmental lethality in lat-1 nematodes treated with compounds promoting cAMP accumulation: forskolin (80 μM), IBMX (10 mM) and 8-Br-cAMP (0.25 mM). Mothers and subsequently offspring of wild-type and lat-1 individuals were incubated and individuals reaching adulthood were scored (n = 410). As controls, nematodes were incubated in solvent without drug (mock). Data are shown as means ± SD. * p < 0.05; ** p < 0.01; *** p < 0.001. (H) Forskolin increases cAMP levels in C. elegans embryos and adults. lat-1 mutants and subsequently embryos were incubated with 80 μM forskolin. […] As controls, nematodes were treated with 0.8% DMSO lacking forskolin (mock). Basal cAMP levels of mock control are: 0.70 ± 0.14 nM (wild-type embryos); 0.37 ± 0.19 nM (lat-1 embryos); 1.9 ± 0.7 nM (wild-type adults); 2.3 ± 0.8 nM (lat-1 adults). Assays were performed in three independent experiments, data are given as means ± SD. * p < 0.05; ** p < 0.01; *** p < 0.001. (I-L) Relative positions of ABala, ABalp, and MS in an AB^4 embryo. Schematic representation (top) and DIC microscopy (bottom), scale bars = 10 μm. In wild-type embryos (I) and embryos incubated in 80 μM forskolin for 120 minutes (K) ABal divides in an anterior-posterior direction with only ABalp forming an interface with MS. In lat-1 mutants the division plane is skewed resulting in ABala and ABalp contacting MS (J). lat-1 embryos treated with 80 μM forskolin for 120 minutes display wild-type division and cell interfaces (L). (M) Arrangement of blastomeres in the 12-cell stage embryo. […] The right-hand side is two views of the mean positions of the blastomeres. The spheres are enlarged to convey an impression of the contacts. Forskolin turns the ABal spindle in the mutant in a more anterior direction. (N) Cell division plane angles of ABal relative to MS of untreated wild-type/lat-1 controls and wild-type/lat-1 embryos after incubation of mothers and subsequently embryos for 48 hours in 80 μM forskolin. Upon forskolin treatment, mutant embryos display a wild-type division angle. As controls, nematodes were treated with 0.8% DMSO lacking forskolin (mock). Data are shown as average angles ± SD, *** p < 0.001; n ≥ 12. (O) Forskolin reduces the contact length of ABala to MS. Ratio of relative contact lengths of ABala to MS and ABalp to MS cells lat-1 embryos untreated (control, n = 10) and after incubation of mothers and subsequently embryos for 48 hours in 80 μM forskolin (n = 11). […] Data were calculated from pixel analyses utilizing DIC images and are shown as means ± SD, ** p < 0.01.
# All compounds were obtained from Sigma Aldrich. Forskolin was dissolved in DMSO to 10 mM, 3-isobutyl-1-methylxanthine (IBMX) in Dent´s buffer to 10 mM, 8-bromoadenosine 3′,5′-cyclic monophosphate (8-Br-cAMP) in 1 N ammonium hydroxide to 250 mM and 2',5'-dideoxyadenosine (ddA) was diluted in DMSO to 100 mM prior to final dilution in Dent´s buffer. […]
# [1] = test system: cAMP levels in C. elegans embryos and adults; assay: In vivo cAMP measurement in C. elegans embryos and adults; conditions: cAMP accumulation assay after lysis
# Text: (§1) Fig 2 Division plane defects in lat-1 mutant embryos are rescued by elevation of intracellular cAMP via a Gs protein/adenylyl cyclase pathway. […] In wild-type embryos treated with the RNAi control vector L4440 ABal divides in an anterior-posterior direction (A) whereas in treated lat-1 mutants the division plane is almost perpendicular to MS (B). gsa-1 RNAi by feeding over two generations leads to a turning of the F2 ABal division plane in a direction similar to that in lat-1 mutants (C). F2 lat-1; gsa-1(RNAi) embryos show a similar ABal division plane to lat-1 mutants (D). (E) Cell division plane angles of ABal relative to MS after knockdown of gsa-1. […] The vector L4440 served as negative control. Data are shown as means ± SD. * p < 0.05; *** p < 0.001; n ≥ 11. (F) cAMP levels are reduced in lat-1 embryos compared to a control wild-type population. cAMP levels were measured after lysis (15 μg protein) by cAMP accumulation assay. Assays were performed in three independent experiments, data are given as means ± SD. ** p < 0.01. […] Mothers and subsequently offspring of wild-type and lat-1 individuals were incubated and individuals reaching adulthood were scored (n = 410). […] Data were calculated from pixel analyses utilizing DIC images and are shown as means ± SD, ** p < 0.01. […]
# C. elegans embryos = assay: Contact length ratio of ABala-MS to ABalp-MS in embryos; type: in vivo; conditions: n = 11
# Text: as §1
# lat-1 mutants = assay: Fertility rescue assay (brood size); type: in vivo, C. elegans; conditions: 80 μM forskolin, independently of time and duration of drug application
# Protocol: Supplementary file pgen.1005624.s004.tif: S3 Fig A cAMP-mediated signal is involved in the role of LAT-1 in cleavage plane orientation but not in fertility. (A) Fertility defects of lat-1 mutants are not rescued by treatment of hermaphrodites from embryonic stages to adulthood with 80 μM forskolin. Brood size was scored compared to untreated (mock), DMSO-treated (0.8%) and wild-type control. Data are given as means ± SD, n.s. not significant. […] (TIF) Click here for additional data file.
# Ten L4 hermaphrodites were allowed to lay eggs on separate NGM plates containing 80 µM forskolin or respective solvent and seeded with OP50. Plates were incubated at 22 °C. Every 24 hours hermaphrodites were transferred onto fresh plates until egg-laying ceased and embryos were scored. Experiments were conducted at least in triplicate. Data were examined with an unpaired two-tailed t test for each genotype and condition, means are presented with SD.
# [2] = molecular target: rat latrophilin LPHN1 (ADGRL1) (rat) (UniProt O88917)
# wild-type embryos = assay: Embryonic lethality after adenylyl cyclase inhibition, wild-type; type: in vivo, C. elegans; conditions: adult hermaphrodites and subsequently very early embryos, 1 mM ddA vs 1% DMSO mock; n > 520
# Protocol: (§2) All compounds were obtained from Sigma Aldrich. Forskolin was dissolved in DMSO to 10 mM, 3-isobutyl-1-methylxanthine (IBMX) in Dent´s buffer to 10 mM, 8-bromoadenosine 3′,5′-cyclic monophosphate (8-Br-cAMP) in 1 N ammonium hydroxide to 250 mM and 2',5'-dideoxyadenosine (ddA) was diluted in DMSO to 100 mM prior to final dilution in Dent´s buffer. Peptides were synthesized (see Supporting Experimental Procedures) and dissolved in DMSO to 100 mM prior to final dilution in M9. Worms were incubated in 80 μM forskolin, 10 mM IBMX, 0.25 mM 8-Br-cAMP, 1 mM ddA or 0.1 mM peptide solution, respectively, containing E. coli OP50.
# (§3) Supplementary file pgen.1005624.s005.tif: S4 Fig Inhibition of adenylyl cyclases in wild-type hermaphrodites partially mimics the lat-1 phenotype. […] Note that this effect might be not fully penetrant due potential difficulties in drug accessibility. As controls, nematodes were treated with 1% DMSO lacking ddA (mock). Individuals surviving embryogenesis were scored (n > 520). Data are given as means ± SD. n.s. not significant; *** p < 0.001. (TIF) Click here for additional data file.
# lat-1 mutant embryos = assay: Embryonic lethality after adenylyl cyclase inhibition, lat-1 mutants; type: in vivo, C. elegans; conditions: 1 mM ddA vs 1% DMSO mock; n > 520
# Protocol: as §2, §3
# [3] = molecular target: T1, C. elegans latrophilin homolog LAT-1 (C. elegans) (UniProt G5EDW2)
# T1 sequence: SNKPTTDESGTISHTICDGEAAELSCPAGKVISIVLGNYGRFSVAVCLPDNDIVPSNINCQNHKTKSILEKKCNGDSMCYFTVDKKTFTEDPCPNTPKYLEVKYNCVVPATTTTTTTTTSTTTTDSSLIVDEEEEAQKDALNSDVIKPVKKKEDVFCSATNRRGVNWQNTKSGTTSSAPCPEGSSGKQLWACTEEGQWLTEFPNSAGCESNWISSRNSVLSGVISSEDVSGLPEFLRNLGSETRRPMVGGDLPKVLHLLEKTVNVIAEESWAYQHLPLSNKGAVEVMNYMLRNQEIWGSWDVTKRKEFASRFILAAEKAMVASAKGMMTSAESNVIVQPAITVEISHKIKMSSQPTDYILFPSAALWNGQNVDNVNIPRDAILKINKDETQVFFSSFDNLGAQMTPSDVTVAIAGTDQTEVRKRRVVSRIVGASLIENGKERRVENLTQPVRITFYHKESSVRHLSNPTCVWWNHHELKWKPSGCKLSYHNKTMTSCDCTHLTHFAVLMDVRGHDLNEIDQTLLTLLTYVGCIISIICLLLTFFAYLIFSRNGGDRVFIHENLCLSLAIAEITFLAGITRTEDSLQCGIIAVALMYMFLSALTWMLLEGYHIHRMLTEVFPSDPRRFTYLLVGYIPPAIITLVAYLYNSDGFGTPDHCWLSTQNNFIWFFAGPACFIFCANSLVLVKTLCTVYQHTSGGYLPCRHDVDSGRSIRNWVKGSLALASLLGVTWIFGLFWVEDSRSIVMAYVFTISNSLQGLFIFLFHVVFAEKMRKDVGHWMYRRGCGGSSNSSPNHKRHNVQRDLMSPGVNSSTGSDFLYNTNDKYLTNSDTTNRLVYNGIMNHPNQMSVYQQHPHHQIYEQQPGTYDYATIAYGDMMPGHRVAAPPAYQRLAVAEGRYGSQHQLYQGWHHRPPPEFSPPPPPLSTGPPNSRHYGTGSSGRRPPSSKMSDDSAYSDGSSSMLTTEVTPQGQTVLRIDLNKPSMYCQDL
# UniProt O88917, sequence (O88917 25-1515): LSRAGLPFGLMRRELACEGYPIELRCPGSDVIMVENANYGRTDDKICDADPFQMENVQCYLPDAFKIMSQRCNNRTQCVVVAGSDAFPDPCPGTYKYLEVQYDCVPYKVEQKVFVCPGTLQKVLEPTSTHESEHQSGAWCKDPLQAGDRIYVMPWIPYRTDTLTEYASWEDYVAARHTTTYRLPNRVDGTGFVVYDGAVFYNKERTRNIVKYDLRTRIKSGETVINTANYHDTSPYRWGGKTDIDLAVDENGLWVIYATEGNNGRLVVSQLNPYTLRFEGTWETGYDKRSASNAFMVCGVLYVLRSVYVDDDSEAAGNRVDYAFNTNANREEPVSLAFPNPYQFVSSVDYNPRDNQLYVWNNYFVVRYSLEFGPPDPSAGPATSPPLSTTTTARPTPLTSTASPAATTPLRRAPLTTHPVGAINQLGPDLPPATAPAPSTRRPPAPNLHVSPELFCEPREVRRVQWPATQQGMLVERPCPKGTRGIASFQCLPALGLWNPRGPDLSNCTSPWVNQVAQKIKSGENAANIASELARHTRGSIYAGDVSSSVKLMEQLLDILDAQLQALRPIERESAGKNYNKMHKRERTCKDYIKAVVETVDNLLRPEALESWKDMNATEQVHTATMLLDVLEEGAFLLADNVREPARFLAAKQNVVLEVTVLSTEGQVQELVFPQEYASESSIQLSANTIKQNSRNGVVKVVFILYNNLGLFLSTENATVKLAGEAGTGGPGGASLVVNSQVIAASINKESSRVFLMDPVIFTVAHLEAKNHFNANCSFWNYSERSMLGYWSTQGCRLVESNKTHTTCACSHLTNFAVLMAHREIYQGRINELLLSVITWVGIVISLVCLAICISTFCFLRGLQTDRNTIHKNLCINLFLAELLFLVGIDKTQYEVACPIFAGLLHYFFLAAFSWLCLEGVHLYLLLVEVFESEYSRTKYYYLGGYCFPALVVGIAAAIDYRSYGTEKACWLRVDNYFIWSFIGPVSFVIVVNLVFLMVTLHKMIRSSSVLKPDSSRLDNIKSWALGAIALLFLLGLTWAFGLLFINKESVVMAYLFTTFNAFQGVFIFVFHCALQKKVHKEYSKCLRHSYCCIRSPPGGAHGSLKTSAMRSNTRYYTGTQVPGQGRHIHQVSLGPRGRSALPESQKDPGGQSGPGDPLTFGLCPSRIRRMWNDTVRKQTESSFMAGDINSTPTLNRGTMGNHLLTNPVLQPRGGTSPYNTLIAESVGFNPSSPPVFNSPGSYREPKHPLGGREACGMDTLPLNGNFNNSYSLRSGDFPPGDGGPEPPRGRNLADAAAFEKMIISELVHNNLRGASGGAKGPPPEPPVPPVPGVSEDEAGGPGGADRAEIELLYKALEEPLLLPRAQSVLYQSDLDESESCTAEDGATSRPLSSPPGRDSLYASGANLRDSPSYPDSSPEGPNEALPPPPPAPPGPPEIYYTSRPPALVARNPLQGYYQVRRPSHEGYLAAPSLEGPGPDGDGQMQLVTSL
molecule,measurement,setting,value
C=C[C@@]1(C)CC(=O)[C@]2(O)[C@@]3(C)[C@@H](O)CCC(C)(C)[C@@H]3[C@H](O)[C@H](OC(C)=O)[C@@]2(C)O1 [forskolin],"effect on embryonic lethality of lat-1 worms, in words","lat-1(ok1465) nematodes; L4 larvae and subsequently embryos incubated, forskolin 80 μM, IBMX 10 mM, 8-Br-cAMP 0.25 mM",amelioration of embryonic lethality
same,"time point of drug application needed for rescue of developmental lethality, in words","lat-1(ok1465) nematodes; lat-1 mutants, 80 μM forskolin",only when adding forskolin to the mother or the very early embryonic stages
same,survival rate (individuals reaching adulthood),"lat-1(ok1465) nematodes; lat-1 worms, mothers (L4) and subsequently offspring incubated in 80 μM forskolin, untreated 33%",73%
same,"effect of concentrations higher than 80 μM on C. elegans, in words",lat-1(ok1465) nematodes; various concentrations tested,higher concentrations were detrimental
same,concentration with optimal effect,lat-1(ok1465) nematodes; various concentrations tested on C. elegans,80 µM
same,"cAMP levels in embryos, in words",[1]; lat-1 mutants and subsequently embryos incubated with 80 μM forskolin vs 0.8% DMSO mock,increase in cAMP levels
same,"cAMP in hermaphrodites, in words","[1]; wild-type and lat-1 hermaphrodites (L4 stage), 80 μM forskolin 48 hours vs 0.8% DMSO mock",elevated cAMP
same,"contact of ABala to MS in wild-type embryos, in words","C. elegans embryos; forskolin-treated wild-type embryos, 80 μM",does not contact MS
same,"contact of ABala to MS in lat-1 embryos, in words","C. elegans embryos; lat-1 embryos, mothers and subsequently embryos 48 hours in 80 μM forskolin, untreated ratio 0.72 ± 0.03",strongly reduced
same,"rescue of reduced brood size of lat-1 mutants, in words",lat-1 mutants,did not detect any rescue
"RP13, peptide of 13 amino acids C-terminal of the rat LPHN1 GPS cleavage site","cAMP accumulation (ALPHAScreen) in COS-7 cells transfected with rat LPHN1 and stimulated with 1 mM peptide, fold over basal",[2],2.3 fold
"C[C@H]1O[C@@H](n2cnc3c(N)ncnc32)C[C@@H]1O [ddA, 2',5'-dideoxyadenosine]","embryonic lethality in wild-type, in words",wild-type embryos,specific embryonic lethality
same,"embryonic lethality in lat-1 mutant embryos, in words",lat-1 mutant embryos,not in lat-1 mutant embryos
"THFAVLMDVRGH [CP12, peptide of 12 amino acids C-terminal of the LAT-1 GPS cleavage site]","cAMP accumulation (ALPHAScreen) in lat-1-transfected COS-7 cells stimulated with 1 mM peptide, fold over basal",[3],1.6 fold
